From paper PMC10372009, “Molecular basis of GDF15 induction and suppression by drugs in cardiomyocytes and cancer cells toward precision medicine” (Scientific Reports, 2023)

Columns and labels:
GDF15 [1] = assay: Basal GDF15 gene expression in 21 lung and colorectal cancer cell lines treated with BI 894999 (RNA sequencing, qPCR); format: cell-based, human; conditions: of 21 treated lung and colorectal cancer cell lines; 10, 35 or 100 nM, 4 h or 24 h
Description: (§1) GDF15 overexpression can be both chemotherapy- and cancer-driven. Various cancer cell types were reported to overexpress GDF15, thereby exacerbating the development of cachexia. Whilst a personalized selection of chemotherapeutic agents has the potential to mitigate chemotherapy-driven GDF15 overexpression in cancer cells, it leaves basal overexpression of GDF15 unaffected. […] To test this further, we analyzed our own gene expression data of 21 lung and colorectal cancer cell lines treated with the BET inhibitor BI 894999[26]. […] Additionally, we analyzed fold-changes of GDF11 which is well known for its rejuvenating effect but also associated with cachexia, partially through upregulation of GDF15[19]. […] The more GDF15 expression was reduced, the more GDF11 expression tended to get increased upon BET inhibition in the respective cell lines (Fig. 5A).
(§2) Figure 5 GDF15 gene suppression by BET inhibitors. Effect of BET inhibition on basal GDF15 and GDF11 expression in 21 cancer cell lines and on doxorubicin-induced GDF15 overexpression in hiPSC-CMs. (A) Treatment of cancer cell lines with the BET Inhibitor BI 894999 (Supplementary Table S3). Fold-change of relative gene expression. Normalized gene expression analysis performed using RNA sequencing and qPCR, 95% confidence interval. […]

GDF11 = GDF11 gene expression in 21 lung and colorectal cancer cell lines treated with BI 894999; format: cell-based, human; conditions: of 21 treated cell lines; 10, 35 or 100 nM, 4 h or 24 h
Description: as §1, §2

GDF15 [2] = assay: Doxorubicin-induced GDF15 mRNA expression in hiPSC-CMs, successive treatment with BET inhibitors (qPCR); format: cell-based, human; conditions: BET inhibitor given subsequently to doxorubicin
Description: (§3) Host cells are known to contribute to elevated GDF15 levels in cachexia patients when exposed to drug toxicity. […] We plotted GDF15 fold-changes against the respective reported half maximal inhibitory concentrations (IC50) of each BET inhibitor for BRD2, BRD3 and BRD4, whenever available. GDF15 fold-change thereby meant the ratio of GDF15 expression induced by doxorubicin only and doxorubicin combined with BET inhibitor normalized to cell viability.
(§4) Cardiotoxic drug (SCREEN-WELL® Cardiotoxicity library, BML-2850, ENZO) library was prepared by serial dilution of 10 mM stocks in DMSO to 9 different concentrations ranging from 0.001 to 10 mM, which were further diluted into assay plates to final concentrations ranging from 0.001 to 10 µM. […] The final concentration of DMSO for hiPSC-CMs assay was 0.1%. To investigate the influence of BET inhibitor treatment on doxorubicin induced GDF15 mRNA expression, hiPSC-CMs were pre-treated with 20 nM or 200 nM doxorubicin for 48 h and kept in medium without compound for 24 h before 24 h treatment with either 100 nM BI 894999 or 500 nM OTX015. […] Cancer cell lines were treated with 10 nM, 35 nM or 100 nM of BI 894999 for 4 h or 24 h (Supplementary Table S3).
(§5) For GDF15 mRNA quantification, total RNA was isolated from the cells using an RNeasy kit (Qiagen, 74106) to synthesize cDNA using a Taqman Reverse Transcription kit (Applied Biosystems, N8080234). Quantitative real-time PCR analysis was performed using QuantiNova SYBR Green PCR Kit (Qiagen, 208052) on a CFX96 Real-Time System (Bio-Rad) under the following amplification conditions: 95 °C for 2 min followed by 40 cycles of 95 °C for 5 s and 60 °C for 10 s. The primer sequences are GDF15-F: 5′-[…]-3′, GDF15-R: 5′-[…]-3′, ACTB-F: 5′-[…]-3′ and ACTB-R: 5′-[…]-3′. PCR data were analyzed using a modified relative expression software tool (REST) and the expression level of GDF15 gene was normalized to that of β-actin.

BRD4 = assay: ChIP-seq of BRD4 bound to putative enhancers near the GDF15 gene locus in AML cell lines; format: cell-based; conditions: 1 to 1000 nM, reanalysis of previously published ChIP-seq data ref 26
Description: In 50% of NCI-60, we thereby found a correlation between drug-induced GDF15 and BRD4 expression. […]

cancer-driven cachexia = tested on: cancer-driven cachexia; design: method as in PMID 29167426; conditions: mice; cited from earlier work
GDF15 [3] = assay: Doxorubicin-induced GDF15 secretion in hiPSC-CMs, simultaneous treatment with BET inhibitors (ELISA); format: cell-based, human; conditions: simultaneous 100 nM doxorubicin and 0.1 to 1000 nM BET inhibitor, 48 h
Description: as §3, §4
as §5, with “β-actin. For secreted GDF15 protein quantification, cell culture medium was collected after drug treatment and stored at − 20 °C until ELISA was performed using Human GDF-15 ELISA Kit (Abcam, ab155432) according to the manufacturer’s instruction. Resulting GDF15 concentrations were normalized to non-treated control and respective relative cell viability.” for “β-actin.”
Supplementary Figure S6. (A) Fold-change of GDF15 secretion by hiPSC-CMs after simultaneous
treatment with doxorubicin and seven BET Inhibitors for 48 h. Normalized to cell viability and non-treated […]

Structure (SMILES) | number of cell lines with significantly reduced GDF15 expression (GDF15 [1]) | number of cell lines with increased GDF11 expression (GDF11) | effect on doxorubicin-induced GDF15 overexpression (mRNA) (GDF15 [2]) | BRD4 bound to putative enhancers in close vicinity to the GDF15 gene locus (BRD4) | effect on cancer-driven cachexia (cancer-driven cachexia) | effect on doxorubicin-induced GDF15 overexpression (secretion) (GDF15 [3])
CNc1nc(-c2nc3ccc(N4CCN(C)CC4)cc3n2Cc2ccccc2)cn2c(C)nnc12 [BI 894999] | 9 | 19 | suppressed | reduction of BRD4 bound to putative enhancers | – | –
Cc1sc2c(c1C)C(c1ccc(Cl)cc1)=N[C@@H](CC(=O)OC(C)(C)C)c1nnc(C)n1-2 [JQ1] | – | – | – | – | counteract cancer-driven cachexia | suppressed
